In patent publication US20230201632A1, “METHODS FOR FIXING HAIR AND SKIN” (Olaplex, Inc., priority 2013, published 2023):

Assays:
[1] = Hair breakage after repeated perm, visual inspection; parameters: species or system human; conditions: perm procedure repeated three times over 48 hours
Protocol: Two hair samples were obtained. Both samples were treated with dithiothreitol or ammonium thioglycolate as described in Example 1. One of the hair samples was subsequently treated with the binding formulation, while the other was neutralized with hydrogen peroxide. The process was completed the same day for the hair treated with the binding formulation. The process was completed in three days with hydrogen peroxide (traditional perm).
The procedure was repeated three times for each hair sample over a 48 hour time period.

[2] = Perm of hair with binding formulation or hydrogen peroxide, 40 wash and dry cycles; parameters: species or system human; conditions: after 40 cycles of washing and drying with the same shampoo and conditioner; hair reduced with ammonium thioglycolate or dithiothreitol
Protocol: Hair samples were obtained from a human subject and cut in ½ inch wide wefts.
Reducing agents: Ammonium thioglycolate (ATG) was obtained from a permanent wave kit manufactured by Zotos. 300 mg of Dithiothreitol in a 10 g solution was also used as the reducing agent.
Binding formulation: A bismaleate binding agent 2,2′-(ethane-1,2-diylbis(oxy))bis(ethan-1-amine) di-maleate at a concentration of 300 mg in 10 g total solution (water) was used.
The hair was washed with clarifying shampoo, towel dried, and then rolled around a perm rod. Ammonium thioglycolate or dithiothreitol was then applied to the hair and left on the hair for 10 minutes to 1 hour. The hair was then rinsed for 30 seconds to 1 minute and then blotted dry with a towel.
The binding formulation was applied to the hair, via a needle nose applicator, drenching the hair. The binding agent was left on the hair for a period of about 7.5 minutes. The hair was drenched for a second time with the binding formulation and left for a second 7.5 minutes, for a total of 15 minutes. The hair was then rinsed with water for about 1-2 minutes then unrolled from the perm rods. After the hair was removed from the perm rods, the hair was shampooed and conditioned with various salon shampoo and conditioner brands, including LiQWd® Hydrating Shampoo and Hydrating Conditioner. The washing and drying steps were repeated 40 times. […]

SMILES: OO [hydrogen peroxide]
- hair breakage upon visual inspection [1]: significant breakage
- reduction in the overall curl [2]: only slight reduction in the overall curl
